According to US3997517A, “Cyclic somatostatin disulfide analogues” (American Home Products Corporation, priority 1976, dated 1976):

Tests used:
Type in all cases: in vivo
blood serum insulin = test: Blood serum insulin in Nembutal-treated rats, radioimmunoassay; conditions: Nembutal 50 mg/kg i.p., blood sampled 15 min later
Method: (§1) The in vivo activity of the cyclic somatostatin disulfide analogues of this invention was established with cyclic somatostatin disulfide as a representative member of the family of compounds by comparing the blood serum growth hormone, glucagon and insulin concentrations found in rats grouped for control, somatostatin and cyclic somatostatin disulfide comparison. The rats, weighing between 200 and 250 grams were treated with Nembutal, 50 milligrams per kilogram intraperitoneally. After five minutes the somatostatin, control and cyclic somatostatin disulfide administrations were made subcutaneously. The rats blood was sampled fifteen minutes later and the growth hormone, glucagon and insulin levels were determined by radioimmunoassay.

[1] = system: blood serum growth hormone; test: Blood serum growth hormone in Nembutal-treated rats, radioimmunoassay; conditions: Nembutal 50 mg/kg i.p., blood sampled 15 min later, control 291±47, *p < 0.01
Method: as §1

blood serum glucagon = test: Blood serum glucagon in Nembutal-treated rats, radioimmunoassay; conditions: Nembutal 50 mg/kg i.p., blood sampled 15 min later
Method: as §1

C[C@@H]1NC(=O)[C@@H]2CSSC[C@H](NC(=O)CNC1=O)C(=O)N[C@@H](CCCCN)C(=O)N[C@@H](CC(N)=O)C(=O)N[C@@H](Cc1ccccc1)C(=O)N[C@@H](Cc1ccccc1)C(=O)N[C@@H](Cc1c[nH]c3ccccc13)C(=O)N[C@@H](CCCCN)C(=O)N[C@@H]([C@@H](C)O)C(=O)N[C@@H](Cc1ccccc1)C(=O)N[C@@H]([C@@H](C)O)C(=O)N[C@@H](CO)C(=O)N2 [Example IV, Cyclo-L-cysteinyl-L-alanyl-glycyl-L-cysteinyl-L-lysyl-L-asparaginyl-L-phenyl-alanyl-L-phenylalanyl-L-tryptophyl-L-lysyl-L-threonyl-L-phenylalanyl-L-threonyl-L-serine (1-4 disulfide)]
Insulin (blood serum insulin; dose 3000 μg/kg subcutaneously, control 272±39): 308 ± 30 µU/mL | GH ([1]; dose 3000 μg/kg subcutaneously): 40 ± 4 ng/mL | Glucagon (blood serum glucagon; dose 3000 μg/kg subcutaneously, control 33±2): 29.7 ± 4 pg/mL

C[C@H](N)C(=O)NCC(=O)N[C@H]1CSSC[C@@H](C(=O)O)NC(=O)[C@H](CO)NC(=O)[C@H]([C@@H](C)O)NC(=O)[C@H](Cc2ccccc2)NC(=O)[C@H]([C@@H](C)O)NC(=O)[C@H](CCCCN)NC(=O)[C@H](Cc2c[nH]c3ccccc23)NC(=O)[C@H](Cc2ccccc2)NC(=O)[C@H](Cc2ccccc2)NC(=O)[C@H](CC(N)=O)NC(=O)[C@H](CCCCN)NC1=O [Somatostatin, somatostatin]
Insulin (blood serum insulin; dose 200 μg/kg subcutaneously, control 272±39, +p < 0.05): 161 ± 21 µU/mL | GH ([1]; dose 200 μg/kg subcutaneously): 40 ± 4 ng/mL | Glucagon (blood serum glucagon; dose 200 μg/kg subcutaneously, control 33±2, *p < 0.01): 17 ± 2 pg/mL
